Experimental data published in US6211158A, “Desazapurine-nucleotide derivatives, processes for the preparation thereof, pharmaceutical compositions containing them and the use thereof for nucleic acid sequencing and as antiviral agents” (Roche Diagnostics GmbH, priority 1987, dated 2001).

What was measured:
[1] = Stability of the N-glycosidic bond under acidic conditions, UV-absorbance as a function of time (Example 30); type: physicochemical; parameters: key to stability towards hydrolysis (classified): classified as stable, when no hydrolysis occurred within the hydrolysis time of the corresponding purine-derivatives; conditions: for half-life: read-out: half life [t(1/2)] of hydrolysis
Experimental: The determination of the stability of the N-glycosidic bond was carried out under acidic conditions by measuring the UV-absorbance as a function of time. The compounds were classified as stable, when no hydrolysis occurred within the hydrolysis time of the corresponding purine-derivatives.
Table of kinetic data with respect to hydrolysis of […]

[2] = Hydrolysis of the N-glycosidic bond in hydrochloric acid at 25° C., UV absorption at 258 nm (Example 29); type: physicochemical; conditions: for half-life: read-out: half life time T/2 of hydrolysis
Experimental: The stability of the N-glycosidic bond of 2',3'-didesoxynucleosides is bound up with the antiviral activity.
The hydrolysis of the bond was investigated at 25° C. in three different concentrations of hydrochloric acid. For this purpose, the UV absorption (Et) was measured at 258 nm. Via the absorption/time curve, there were determined the velocity constants of the hydrolysis (k) and the half life times (T/2) on the basis of the following equation:
k=1/t×ln(Eo -Eoo)/(Et -Eoo)
Eo being the absorption at time t=0 and Eoo being the absorption after complete termination of the reaction.
There were compared 2',3'-dideoxyadenosine (a) and 6-amino-8-aza-7-deaza-2',3'-dideoxy-9-β-D-ribofuranosylpurine (b) at 25° C.

Compound | half-life ([1]; 0.01 n hcl) | stability towards hydrolysis (classified) ([1]; 0.01 N HCl) | stability towards hydrolysis (classified) ([1]; 0.1 N HCl) | stability towards hydrolysis (classified) ([1]; 1 N HCl) | further results
Nc1nc2c(cnn2[C@H]2CC[C@@H](CO)O2)c(=O)[nH]1 [c^7 z^8 ddG, 2-Amino-(2',3'-dideoxy-β-D-glyceropentofuranosyl)-1H-pyrazolo[3,4-d]pyrimidin-4-one] | 135 min | – | – | – | –
Nc1nccc2c1ccn2[C@H]1CC[C@@H](CO)O1 [c^3 c^7 ddA, 6-amino-3,7-dideaza-2',3'-dideoxy-9-β-D-ribofuranosylpurine] | – | stable | stable | stable | –
Nc1nc2c(ccn2[C@H]2CC[C@@H](CO)O2)c(=O)[nH]1 [c^7 ddG, 2-Amino-7-deaza-2',3'-dideoxy-9-β-D-ribofuranosylpurine-6-one] | – | stable | stable | stable | –
Nc1ncnc2c1cnn2[C@H]1CC[C@@H](CO)O1 [c^7 z^8 ddA, 6-Amino-8-aza-7-deaza-2',3'-dideoxy-9-β-D-ribofuranosylpurine] | 280 min | – | – | – | half-life ([1]; 0.1 n hcl): 20.4 min; velocity constant of the hydrolysis k ([2]; 0.01 N HCl): 0.0025 min⁻¹; half-life ([2]; 0.01 N HCl): 280 min; half-life ([2]; 0.1 N HCl): 20.4 min; half-life ([2]; 1 N HCl): 0.83 min; times more stable than (a) ([2]; compared with 2',3'-dideoxyadenosine (a), HCl): more than 10 times
Nc1ncnc2c1ncn2[C@H]1CC[C@@H](CO)O1 [ddA, 2',3'-dideoxyadenosine, reference compound] | 31.5 min | – | – | – | half-life ([1]; 0.1 n hcl): 1.9 min; velocity constant of the hydrolysis k ([2]; 0.01 N HCl): 0.022 min⁻¹; half-life ([2]; 0.01 N HCl): 31.5 min; half-life ([2]; 0.1 N HCl): 1.9 min
Nc1ncnc2c1ccn2[C@H]1CC[C@@H](CO)O1 [c^7 ddA, 4-Amino-7-(2',3'-dideoxy-β-D-glyceropentofuranosyl)-7H-pyrrolo[2,3-d]pyrimidine] | – | stable | stable | stable | –
Nc1nc2c(ncn2[C@H]2CC[C@@H](CO)O2)c(=O)[nH]1 [ddG, reference compound] | 37 min | – | – | – | –
